Values after ≈ are worked out from the molar mass of the structure shown.
Key:
Moraxella catarrhalis = test: Antibacterial activity against Moraxella catarrhalis BC-3531 by micro-broth method; format: functional
Haemophilus influenzae = test: Antibacterial activity against Heamophilus influenzae HI3542 by microbroth method; format: functional
Streptococcus pneumoniae = test: Antibacterial activity against Streptococcus pneumoniae SV1 SP3 by micro-broth method; format: functional
Escherichia coli = test: Inhibition of transcription and translation activity in Escherichia coli by luciferase reporter assay; format: functional, organism-based
Staphylococcus aureus = test: Antibacterial activity against Staphylococcus aureus UC76 SA1 by micro-broth method; format: functional
Enterococcus faecalis = test: Antibacterial activity against Enterococcus faecalis MG2 EF1 by micro-broth method; format: functional
Streptococcus pyogenes = test: Antibacterial activity against Streptococcus pyogenes C203 SP1-1 by micro-broth method; format: functional

SMILES	MIC (Moraxella catarrhalis)	MIC (Haemophilus influenzae)	MIC (Streptococcus pneumoniae)	IC50 (Escherichia coli)	MIC (Staphylococcus aureus)	MIC (Enterococcus faecalis)	MIC (Streptococcus pyogenes)
CC(=O)NC[C@H]1CN(c2ccc3c(c2)CCCc2c(-c4cccnc4)n[nH]c2-3)C(=O)O1	2 µg/mL (≈ 4.79 µM)	4 µg/mL (≈ 9.58 µM)	0.125 µg/mL (≈ 0.299 µM)	1000 nM	1 µg/mL (≈ 2.4 µM)	0.5 µg/mL (≈ 1.2 µM)	0.25 µg/mL (≈ 0.599 µM)
CC(=O)NC[C@H]1CN(c2ccc3c(c2)CCCc2c(-c4ccccc4)n[nH]c2-3)C(=O)O1	2 µg/mL (≈ 4.8 µM)	8 µg/mL (≈ 19.2 µM)	0.5 µg/mL (≈ 1.2 µM)	2000 nM	0.5 µg/mL (≈ 1.2 µM)	0.5 µg/mL (≈ 1.2 µM)	0.5 µg/mL (≈ 1.2 µM)
CC(=O)NC[C@H]1CN(c2ccc3c(c2)CCCc2c(-c4ccc(O)cc4)n[nH]c2-3)C(=O)O1	2 µg/mL (≈ 4.62 µM)	4 µg/mL (≈ 9.25 µM)	0.25 µg/mL (≈ 0.578 µM)	1700 nM	1 µg/mL (≈ 2.31 µM)	0.5 µg/mL (≈ 1.16 µM)	2 µg/mL (≈ 4.62 µM)
CC(=O)NC[C@H]1CN(c2ccc3c(c2)CCCc2c(-c4ccc(C#N)cc4)n[nH]c2-3)C(=O)O1	1 µg/mL (≈ 2.27 µM)	4 µg/mL (≈ 9.06 µM)	0.25 µg/mL (≈ 0.566 µM)	1400 nM	0.5 µg/mL (≈ 1.13 µM)	0.25 µg/mL (≈ 0.566 µM)	0.125 µg/mL (≈ 0.283 µM)
CC(=O)NC[C@H]1CN(c2ccc3c(c2)CCCc2c(-c4ccc(F)cc4)n[nH]c2-3)C(=O)O1	1 µg/mL (≈ 2.3 µM)	8 µg/mL (≈ 18.4 µM)	0.25 µg/mL (≈ 0.575 µM)	1500 nM	0.5 µg/mL (≈ 1.15 µM)	0.5 µg/mL (≈ 1.15 µM)	1 µg/mL (≈ 2.3 µM)
CC(=O)NC[C@H]1CN(c2ccc3c(c2)CCCc2c(-c4ccncc4)n[nH]c2-3)C(=O)O1	2 µg/mL (≈ 4.79 µM)	4 µg/mL (≈ 9.58 µM)	0.25 µg/mL (≈ 0.599 µM)	1000 nM	2 µg/mL (≈ 4.79 µM)	1 µg/mL (≈ 2.4 µM)	0.25 µg/mL (≈ 0.599 µM)

The next lines start with the values.

MIC (Moraxella catarrhalis)	MIC (Haemophilus influenzae)	MIC (Streptococcus pneumoniae)	IC50 (Escherichia coli)	MIC (Staphylococcus aureus)	MIC (Enterococcus faecalis)	MIC (Streptococcus pyogenes)	SMILES
1 µg/mL (≈ 2.46 µM)	4 µg/mL (≈ 9.84 µM)	0.25 µg/mL (≈ 0.615 µM)	700 nM	0.5 µg/mL (≈ 1.23 µM)	0.25 µg/mL (≈ 0.615 µM)	0.125 µg/mL (≈ 0.308 µM)	CC(=O)NC[C@H]1CN(c2ccc3c(c2)CCCc2c(-c4ccoc4)n[nH]c2-3)C(=O)O1
1 µg/mL (≈ 2.45 µM)	2 µg/mL (≈ 4.91 µM)	< 0.06 µg/mL	760 nM	0.25 µg/mL (≈ 0.614 µM)	0.125 µg/mL (≈ 0.307 µM)	< 0.06 µg/mL	CC(=O)NC[C@H]1CN(c2ccc3c(c2)CCCc2c(-c4ccno4)n[nH]c2-3)C(=O)O1
1 µg/mL (≈ 2.36 µM)	2 µg/mL (≈ 4.72 µM)	0.125 µg/mL (≈ 0.295 µM)	1100 nM	1 µg/mL (≈ 2.36 µM)	0.5 µg/mL (≈ 1.18 µM)	1 µg/mL (≈ 2.36 µM)	CC(=O)NC[C@H]1CN(c2ccc3c(c2)CCCc2c(-c4cscn4)n[nH]c2-3)C(=O)O1
4 µg/mL (≈ 11.3 µM)	4 µg/mL (≈ 11.3 µM)	0.5 µg/mL (≈ 1.41 µM)	1200 nM	1 µg/mL (≈ 2.82 µM)	1 µg/mL (≈ 2.82 µM)	0.5 µg/mL (≈ 1.41 µM)	CC(=O)NC[C@H]1CN(c2ccc3c(c2)CCCc2c(C)n[nH]c2-3)C(=O)O1
1 µg/mL (≈ 2.71 µM)	4 µg/mL (≈ 10.9 µM)	0.125 µg/mL (≈ 0.339 µM)	1100 nM	0.5 µg/mL (≈ 1.36 µM)	0.25 µg/mL (≈ 0.679 µM)	0.125 µg/mL (≈ 0.339 µM)	CCc1n[nH]c2c1CCCc1cc(N3C[C@H](CNC(C)=O)OC3=O)ccc1-2
4 µg/mL (≈ 10.5 µM)	16 µg/mL (≈ 41.8 µM)	0.5 µg/mL (≈ 1.31 µM)	3100 nM	2 µg/mL (≈ 5.23 µM)	1 µg/mL (≈ 2.61 µM)	0.5 µg/mL (≈ 1.31 µM)	CCCc1n[nH]c2c1CCCc1cc(N3C[C@H](CNC(C)=O)OC3=O)ccc1-2
1 µg/mL (≈ 2.45 µM)	4 µg/mL (≈ 9.79 µM)	0.25 µg/mL (≈ 0.612 µM)	1300 nM	1 µg/mL (≈ 2.45 µM)	1 µg/mL (≈ 2.45 µM)	1 µg/mL (≈ 2.45 µM)	CC(=O)NC[C@H]1CN(c2ccc3c(c2)CCCc2c(C(F)(F)F)n[nH]c2-3)C(=O)O1
8 µg/mL (≈ 20.9 µM)	16 µg/mL (≈ 41.8 µM)	0.5 µg/mL (≈ 1.31 µM)	4300 nM	2 µg/mL (≈ 5.23 µM)	2 µg/mL (≈ 5.23 µM)	1 µg/mL (≈ 2.61 µM)	CC(=O)NC[C@H]1CN(c2ccc3c(c2)CCCc2c(C(C)C)n[nH]c2-3)C(=O)O1
2 µg/mL (≈ 4.75 µM)	4 µg/mL (≈ 9.49 µM)	0.25 µg/mL (≈ 0.593 µM)	900 nM	0.5 µg/mL (≈ 1.19 µM)	0.5 µg/mL (≈ 1.19 µM)	0.25 µg/mL (≈ 0.593 µM)	CC(=O)NC[C@H]1CN(c2ccc3c(c2)CCCc2c(-c4cc(C)on4)n[nH]c2-3)C(=O)O1
